Experimental data: patent publication US7173004B2, “Macrocyclic isoquinoline peptide inhibitors of hepatitis C virus” (Bristol-Myers Squibb Company, priority 2003, dated 2007)

Test system: HCV replicon
Assay: Two-drug combination matrix studies in HCV replicon system, Universal Response Surface Approach (URSA)
Type: cell-based
Conditions: for EC50: Hepatitis C virus
Protocol: In addition to the combination index approach, above, the Universal Response Surface Approach (URSA) was also used to assess the antiviral effects of combinations of NS5A or NS5B inhibitors with the NS3 protease inhibitor. The experiments were conducted in a matrixed format with 8 concentrations of NS3 protease inhibitor crossed against 10 concentrations of NS5A or NS5B inhibitor on each of three plates. 200× stock solutions of each inhibitor concentration were prepared by 3-fold dilution in DMSO. Effects on replication were assessed in the HCV replicon system as described above. The data was analyzed using the URSA as described in Greco, Park and Rustum (Greco, Park, Sook, and Rustum (1990) Application of a New Approach for the Quantitation of Drug Synergism to the Combination of cis-Diamminedichloroplatinum and 1-β-D-Arabinofuranosylcytosine, Cancer Research, 50, 5318–5327). The interaction of the two drugs was assessed by using non-linear regression with a bisection algorithm. Seven parameters were estimated. These include the minimal response or response in the absence of drug, the maximal response or response in the presence of infinite drug, EC50's for the two drugs, slope parameters for the two drugs, and the drug interaction parameter α which provides the assessment of synergism, antagonism or additivity. Additivity is implied when α is equal to zero, synergy if the interaction parameter is larger than zero, and antagonism when the interaction parameter is less than zero. The confidence interval for the interaction parameter is also presented. This interval is used to test for departure from additivity by comparing the bounds to zero—a lower bound of the interval greater than zero indicates synergy, an upper bound of less than zero indicates antagonism, and a value of zero contained in the interval indicates additivity.

[1] = compound 28 combined with NS5A inhibitor, matrix study (Table 10)
[2] = compound 28 combined with NS5B inhibitor, Expt 1
[3] = compound 28 combined with NS5B inhibitor, Expt 2

`COc1ccc2c(OC3CC4C(=O)NC5(C(=O)NS(=O)(=O)C6CC6)CC5C=CCOCCCC(NC(=O)OC(C)(C)C)C(=O)N4C3)nccc2c1` (centres unmarked) [Compound 28, [4-Cyclopropanesulfonylaminocarbonyl-18-(6-methoxy-isoquinolin-1-yloxy)-2,15-dioxo-10-oxa-3,16-diaza-tricyclo[14.3.0.0^4,6]nonadec-7-en-14-yl]-carbamic acid tert-butyl ester] gave an EC50 (matrix study with NS5A inhibitor, URSA estimate (Table 10)) of 9 nM, an EC50 (matrix study with NS5B inhibitor, Expt 1 (Table 11)) of 15 nM and an EC50 (matrix study with NS5B inhibitor, Expt 2 (Table 11)) of 20 nM. For the same molecule, the Interaction parameter alpha [1] was 0.63, the “Overall Result” value [1] was “Additivity” and the “Overall Result” value (compound 28 combined with NS5A inhibitor, matrix study (Table 10), listed as compound 28) was “additivity”. The Interaction parameter alpha [2] was 0.47, the “Overall Result” value [2] was “Additivity” and the Interaction parameter alpha [3] was 0.31. For the same molecule, the “Overall Result” value [3] was “Additivity” and the “combination effect with the HCV NS5B inhibitor, matrix format” value (two experiments) was “overall additivity”.
